Data as given in patent US20230053540A1, “TREATMENT OF LIVER INJURY” (Massachusetts Institute of Technology, priority 2019, published 2023).

System: hepatocytes
Assay: Seq-Well scRNA-Seq of hepatocytes after APAP overdose (signature scores, DEG vs untreated)
Format: in vivo, mouse
[1] = cluster A6, DEG between treatment (APAP and PH)

CC(=O)Nc1ccc(O)cc1 [APAP, acetaminophen]
avg_logFC Tmsb4x [1]: 0.7911
avg_logFC Tnfrsf1a [1]: 0.5681
avg_logFC Tnfrsf12a [1]: 1.105
avg_logFC Tns1 [1]: 0.4001
avg_logFC Tra2a [1]: 0.7081
avg_logFC Trp53inp1 [1]: 0.8829
avg_logFC Tsc22d2 [1]: 0.3629
avg_logFC Tsku [1]: 0.3332
avg_logFC Tsr1 [1]: 0.3392
avg_logFC Tubb2a [1]: 0.786
avg_logFC Tubb6 [1]: 0.5715
avg_logFC Txnrd1 [1]: 1.375
avg_logFC Ugdh [1]: 0.6085
avg_logFC Wbp1l [1]: 0.3897
avg_logFC Wdr43 [1]: 0.3083
avg_logFC Xbp1 [1]: 0.5694
avg_logFC Ywhag [1]: 0.5132
avg_logFC Zyx [1]: 0.2799
avg_logFC mmu-mir-6240 [1]: 1.032
avg_logFC n-R5-8s1 [1]: 0.4005
avg_logFC Acly (cluster A24 (APAP, 24 h)): 0.3005
avg_logFC Arcn1 (cluster A24 (APAP, 24 h)): 0.2594
avg_logFC Cltc (cluster A24 (APAP, 24 h)): 0.2853
avg_logFC Cmah (cluster A24 (APAP, 24 h)): 0.2958
avg_logFC Ctnnb1 (cluster A24 (APAP, 24 h)): 0.25
avg_logFC Dnajb11 (cluster A24 (APAP, 24 h)): 0.2998
avg_logFC Dnajc12 (cluster A24 (APAP, 24 h)): 0.2565
avg_logFC Etnk1 (cluster A24 (APAP, 24 h)): 0.2761
avg_logFC Fndc3b (cluster A24 (APAP, 24 h)): 0.2502
avg_logFC Gm26917 (cluster A24 (APAP, 24 h)): 0.5819
avg_logFC Magt1 (cluster A24 (APAP, 24 h)): 0.253
avg_logFC Nab1 (cluster A24 (APAP, 24 h)): 0.2534
avg_logFC Nars (cluster A24 (APAP, 24 h)): 0.2657
avg_logFC Nedd4 (cluster A24 (APAP, 24 h)): 0.2553
avg_logFC Ptprf (cluster A24 (APAP, 24 h)): 0.2512
avg_logFC Rab1 (cluster A24 (APAP, 24 h)): 0.2582
avg_logFC Sec61b (cluster A24 (APAP, 24 h)): 0.2648
avg_logFC Srebf1 (cluster A24 (APAP, 24 h)): 0.2874
avg_logFC Usp4 (cluster A24 (APAP, 24 h)): 0.2727
avg_logFC Usp9x (cluster A24 (APAP, 24 h)): 0.2853
avg_logFC 1-Mar (cluster A48 (APAP, 48 h)): 0.2986
avg_logFC 0610005C13Rik (cluster A48 (APAP, 48 h)): 0.3977
avg_logFC 1600002H07Rik (cluster A48 (APAP, 48 h)): 0.2939
avg_logFC Abcb4 (cluster A48 (APAP, 48 h)): 0.4702
avg_logFC Abcc3 (cluster A48 (APAP, 48 h)): 0.4075
avg_logFC Abcd2 (cluster A48 (APAP, 48 h)): 0.2906
avg_logFC Abhd14b (cluster A48 (APAP, 48 h)): 0.4104
avg_logFC Acadl1 (cluster A48 (APAP, 48 h)): 0.3879
avg_logFC Acat1 (cluster A48 (APAP, 48 h)): 0.3773
avg_logFC Acbd5 (cluster A48 (APAP, 48 h)): 0.3517
avg_logFC Aco2 (cluster A48 (APAP, 48 h)): 0.3054
avg_logFC Acot12 (cluster A48 (APAP, 48 h)): 0.3091
avg_logFC Acsl1 (cluster A48 (APAP, 48 h)): 0.3668
avg_logFC Agt (cluster A48 (APAP, 48 h)): 0.5339
avg_logFC Ahcy (cluster A48 (APAP, 48 h)): 0.4739
avg_logFC Ahsg (cluster A48 (APAP, 48 h)): 0.2506
avg_logFC Akr1c19 (cluster A48 (APAP, 48 h)): 0.3705
avg_logFC Aldh9a1 (cluster A48 (APAP, 48 h)): 0.4147
avg_logFC Aldoa (cluster A48 (APAP, 48 h)): 0.2635
avg_logFC Aldob (cluster A48 (APAP, 48 h)): 0.3758
avg_logFC Amy1 (cluster A48 (APAP, 48 h)): 0.495
avg_logFC Anapc13 (cluster A48 (APAP, 48 h)): 0.2762
avg_logFC Angptl3 (cluster A48 (APAP, 48 h)): 0.7705
avg_logFC Apoa5 (cluster A48 (APAP, 48 h)): 0.4366
avg_logFC Apoc1 (cluster A48 (APAP, 48 h)): 0.3638
avg_logFC Apoc2 (cluster A48 (APAP, 48 h)): 0.8142
avg_logFC Apoc3 (cluster A48 (APAP, 48 h)): 0.3634
avg_logFC Apoc4 (cluster A48 (APAP, 48 h)): 0.5053
avg_logFC Apoe (cluster A48 (APAP, 48 h)): 0.6102
avg_logFC Apoh (cluster A48 (APAP, 48 h)): 0.5359
avg_logFC Armc1 (cluster A48 (APAP, 48 h)): 0.2587
avg_logFC Asgr2 (cluster A48 (APAP, 48 h)): 0.3431
avg_logFC Aspdh (cluster A48 (APAP, 48 h)): 0.326
avg_logFC Atf5 (cluster A48 (APAP, 48 h)): 0.3544
avg_logFC Atp5b (cluster A48 (APAP, 48 h)): 0.3451
avg_logFC Atp5g3 (cluster A48 (APAP, 48 h)): 0.3996
avg_logFC Atp5j (cluster A48 (APAP, 48 h)): 0.4575
avg_logFC Atp5k (cluster A48 (APAP, 48 h)): 0.4074
avg_logFC Atp5h (cluster A48 (APAP, 48 h)): 0.7312
avg_logFC Azgp1 (cluster A48 (APAP, 48 h)): 0.2836
avg_logFC Bfar (cluster A48 (APAP, 48 h)): 0.3018
avg_logFC Bnip3 (cluster A48 (APAP, 48 h)): 0.5262
avg_logFC Brap (cluster A48 (APAP, 48 h)): 0.3395
avg_logFC Camk2n1 (cluster A48 (APAP, 48 h)): 0.2578
avg_logFC Cd1d1 (cluster A48 (APAP, 48 h)): 0.3518
avg_logFC Cdo1 (cluster A48 (APAP, 48 h)): 0.4301
avg_logFC Cebpb (cluster A48 (APAP, 48 h)): 0.4231
avg_logFC Ces1b (cluster A48 (APAP, 48 h)): 0.5308
avg_logFC Ces1c (cluster A48 (APAP, 48 h)): 0.5861
avg_logFC Ces1f (cluster A48 (APAP, 48 h)): 0.3532
avg_logFC Ces2a (cluster A48 (APAP, 48 h)): 0.3404
avg_logFC Ces1d (cluster A48 (APAP, 48 h)): 0.3324
avg_logFC Chchd10 (cluster A48 (APAP, 48 h)): 0.814
avg_logFC Cox5a (cluster A48 (APAP, 48 h)): 0.4303
avg_logFC Cox8a (cluster A48 (APAP, 48 h)): 0.5202
avg_logFC Cp (cluster A48 (APAP, 48 h)): 0.2715
avg_logFC Cpt2 (cluster A48 (APAP, 48 h)): 0.3214
avg_logFC Creb3l3 (cluster A48 (APAP, 48 h)): 0.3228
avg_logFC Creg1 (cluster A48 (APAP, 48 h)): 0.418
avg_logFC Ctsd (cluster A48 (APAP, 48 h)): 0.3237
avg_logFC Ctsh (cluster A48 (APAP, 48 h)): 0.4649
